Measurements as given in the supplement of paper PMC4862054.

Key:
Details in all cases: incubation time: 72 h
CAL-148 [1] = assay: normalised response (% of control), CellTiter-Glo; higher = more viable cells (100 = DMSO, 0 = benzethonium chloride kill control)
Procedure, shortened: (§1)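 For each plate, 0.1 % DMSO was set to 100 and a positive kill control to 0. Breast cancer cell lines (20 µl suspension) were seeded into 384-well plates already holding compound at 5 concentrations in 10-fold steps over a 10,000-fold range chosen per compound, and incubated for 72 h. CellTox Green fluorescence at 485/520 nm was read before CellTiter-Glo luminescence, which followed 10 min at room temperature. Each value is the normalised signal at one concentration.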

MFM-223 [2] = assay: as above
Procedure, shortened: as §1

SK-BR-3 [3] = assay: as above
Procedure, shortened: as §1

Hs578T [4] = assay: as above
Procedure, shortened: as §1

HCC1937 [5] = assay: as above
Procedure, shortened: as §1

CAL-120 [6] = assay: as above
Procedure, shortened: as §1

MDA-MB-436 [7] = assay: as above
Procedure, shortened: as §1

CAL-85-1 [8] = assay: as above
Procedure, shortened: as §1

CAL-51 [9] = assay: as above
Procedure, shortened: as §1

HCC1599 [10] = assay: as above
Procedure, shortened: as §1

BT-549 [11] = assay: as above
Procedure, shortened: as §1

BT-474 [12] = assay: as above
Procedure, shortened: as §1

MDA-MB-468 [13] = assay: as above
Procedure, shortened: as §1

DU-4475 [14] = assay: as above
Procedure, shortened: as §1

MCF-10A = assay: as above
Procedure, shortened: as §1

MDA-MB-453 [15] = assay: as above
Procedure, shortened: as §1

MDA-MB-231 [16] = assay: as above
Procedure, shortened: as §1

HCC1143 [17] = assay: as above
Procedure, shortened: as §1

HDQ-P1 [18] = assay: as above
Procedure, shortened: as §1

CAL-148 [19] = assay: normalised viability (% of control), CellTiter-Blue; higher = more viable cells (100 = DMSO, 0 = benzethonium chloride kill control)
Protocol: (§2)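 DSRT, CellTiter-Blue viability, 72 h incubation. Signal is normalised to DMSO and benzethonium chloride controls. Value is the normalised response at dose 1.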

MFM-223 [20] = assay: as above
Protocol: as §2

SK-BR-3 [21] = assay: as above
Protocol: as §2

Hs578T [22] = assay: as above
Protocol: as §2

HCC1937 [23] = assay: as above
Protocol: as §2

CAL-120 [24] = assay: as above
Protocol: as §2

MDA-MB-436 [25] = assay: as above
Protocol: as §2

CAL-85-1 [26] = assay: as above
Protocol: as §2

CAL-51 [27] = assay: as above
Protocol: as §2

HCC1599 [28] = assay: as above
Protocol: as §2

BT-549 [29] = assay: as above
Protocol: as §2

BT-474 [30] = assay: as above
Protocol: as §2

MDA-MB-468 [31] = assay: as above
Protocol: as §2

DU-4475 [32] = assay: as above
Protocol: as §2

MDA-MB-453 [33] = assay: as above
Protocol: as §2

MDA-MB-231 [34] = assay: as above
Protocol: as §2

HCC1143 [35] = assay: as above
Protocol: as §2

HDQ-P1 [36] = assay: as above
Protocol: as §2

SMILES	normalised response (CAL-148 [1]) [%]	normalised response (MFM-223 [2]) [%]	normalised response (SK-BR-3 [3]) [%]	normalised response (Hs578T [4]) [%]	normalised response (HCC1937 [5]) [%]	normalised response (CAL-120 [6]) [%]	normalised response (MDA-MB-436 [7]) [%]	normalised response (CAL-85-1 [8]) [%]	normalised response (CAL-51 [9]) [%]	normalised response (HCC1599 [10]) [%]	normalised response (BT-549 [11]) [%]	normalised response (BT-474 [12]) [%]	normalised response (MDA-MB-468 [13]) [%]	normalised response (DU-4475 [14]) [%]	normalised response (MCF-10A) [%]	normalised response (MDA-MB-453 [15]) [%]	normalised response (MDA-MB-231 [16]) [%]	normalised response (HCC1143 [17]) [%]	normalised response (HDQ-P1 [18]) [%]	normalised viability (CAL-148 [19]) [%]	normalised viability (MFM-223 [20]) [%]	normalised viability (SK-BR-3 [21]) [%]	normalised viability (Hs578T [22]) [%]	normalised viability (HCC1937 [23]) [%]	normalised viability (CAL-120 [24]) [%]	normalised viability (MDA-MB-436 [25]) [%]	normalised viability (CAL-85-1 [26]) [%]	normalised viability (CAL-51 [27]) [%]	normalised viability (HCC1599 [28]) [%]	normalised viability (BT-549 [29]) [%]	normalised viability (BT-474 [30]) [%]	normalised viability (MDA-MB-468 [31]) [%]	normalised viability (DU-4475 [32]) [%]	normalised viability (MDA-MB-453 [33]) [%]	normalised viability (MDA-MB-231 [34]) [%]	normalised viability (HCC1143 [35]) [%]	normalised viability (HDQ-P1 [36]) [%]
COc1cc(OC2CCN(C)CC2)ccc1Nc1ncc2c(n1)n(C1CCCC1)c(=O)n2C [AZ 3146] (1 nM)	101	98.2	98.3	93.7	95.9	105	85.8	99.7	101	125	107	95.5	101	90.9	94.2	112	102	98.9	98.4	109	109	107	89.2	95.2	116	103	114	92.4	126	84.3	98.9	105	98.8	94.3	92.2	128	88.3
CN(C)c1nc(N(C)C)nc(N(C)C)n1 [Altretamine] (1 nM)	96.5	103	108	102	93.1	97	97.9	96.4	103	90.2	95	106	101	104	102	124	104	99.6	101	111	95.1	87.6	97.3	105	88.2	110	94.8	105	86.3	93.1	112	93.1	111	99.1	96	102	116
CNC(=O)c1cc(Oc2ccc(NC(=O)Nc3ccc(Cl)c(C(F)(F)F)c3)c(F)c2)ccn1 [Regorafenib] (1 nM)	94.2	97.2	112	99.5	96.4	94.1	99.9	104	90.1	110	99.9	95.7	114	102	104	115	100	98.5	100	103	106	100	84.9	83.5	89.7	104	88.9	96	131	102	91.4	108	121	105	101	100	88.5
NC(=O)c1ccc(I)c([N+](=O)[O-])c1 [Iniparib] (1 nM)	83.8	84.2	76.7	90.9	93.5	96.5	87.1	94.6	128	101	108	83.2	94.8	93.8	77.3	86.2	90.9	87.8	92.5	93.2	103	92.1	116	130	85.1	108	86	95	87.8	113	92.8	99.1	87.6	94.5	98.9	97.1	104
O=C(Nc1cccnc1)N1CCC(Cc2cccc(Oc3ccc(C(F)(F)F)cn3)c2)CC1 [PF-3845] (1 nM)	114	110	113	106	98.4	107	105	101	89.8	95.8	107	98.6	97.9	95.8	113	117	110	108	103	106	91.9	123	135	91.6	86.7	99.8	89	98.4	98.9	111	70.3	104	92.1	103	114	92.8	145
N#Cc1ccc(COC[C@H]2O[C@@H](n3c(NCc4ccc(Cl)c(Cl)c4)nc4c(N)ncnc43)[C@H](O)[C@@H]2O)cc1 (1 nM)	110	107	109	101	103	108	104	104	78.2	110	99.8	109	107	99.1	112	112	107	108	108	111	92.5	91.4	92.8	84.1	101	110	98.4	111	109	105	116	95.5	111	110	102	99.9	118
